Source: patent publication US20140187625A1, “RODENTICIDAL COMPOUND, COMPOSITION INCLUDING SAME AND USE FOR COMBATING RODENT PESTS” (priority 2011, published 2014)

The compounds below were run against T1, activity with respect to vitamin K (vitamin K epoxide substrate), microsomal liver fractions from sensitive rats (Rattus norvegicus, UniProt Q6TEK4) (assay: Inhibition of vitamin K epoxide reduction (activity with respect to vitamin K) in rat liver microsomes, IC50). Conditions: not given.
T1 construct: with 0.5 to 1 mg of microsomal liver fractions from sensitive rats; from tissue; host or cells: rat liver microsomes (sensitive rats)
T1 sequence (Q6TEK4 1-161): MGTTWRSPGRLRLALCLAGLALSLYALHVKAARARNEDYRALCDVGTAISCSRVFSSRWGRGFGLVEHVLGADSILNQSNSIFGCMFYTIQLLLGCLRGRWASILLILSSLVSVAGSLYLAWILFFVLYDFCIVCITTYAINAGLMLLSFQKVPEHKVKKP
Format: biochemical
Protocol: The operating protocol is the following. Incubation is carried out in a 200 mM Hepes buffer (pH 7.4) containing 150 mM KCl in the presence of a reducing agent, dithiothreitol (1 mM): • with 0.5 to 1 mg of microsomal liver fractions from sensitive rats, and the reaction substrate, • with […] of vitamin K epoxide in a final volume of 1 ml.
The mixture is incubated for 30 minutes at 37° C. and the reaction is stopped by addition of 4 ml of a mixture of isopropanol/hexane (1:1).
The reaction mixture is then centrifuged for 10 minutes at 3,000 revolutions per minute.
The organic phase is collected and then evaporated to dryness under nitrogen.
The dry residue is immediately taken up in 200 μl of isopropanol.
The vitamin K is then analyzed. The products are separated by reverse chromatography on a C8 column using a mobile phase composed of methanol and acetic acid under isocratic conditions (1 ml/min) at 45° C. Detection of the product is carried out by MS/MS with an APCI source in positive mode.
The identification criteria for vitamin K are the retention time and the production of fragment 187 from the initial ion 451.
The IC50 values are evaluated by non-linear to linear regression from the equation of non-competitive inhibition:
v=(vmax/(l+(I/Ki)))*(S/(Km+S))
where v represents the initial rate, I the concentration of anticoagulant, Km the Michaelis-Menten constant, S the concentration of substrate (mM), Vmax the maximum rate of reaction and Ki the inhibition constant.
Work on `CCCCCCCCCCCCc1c(O)c2ccccc2oc1=O` [IV] yielded an IC50 of 50 nM. Work on `CCCCCCCCCCCCCCCCc1c(O)c2ccccc2oc1=O` [VI] yielded an IC50 of 40 nM. For `CCCCCCCCCCCCCCCCCCc1c(O)c2ccccc2oc1=O` [VII], the IC50 was 60 nM. Work on `CCCCCCCCCCCCCCc1c(O)c2ccccc2oc1=O` [V] yielded an IC50 of 40 nM. In the case of `CCCCCCCCCCc1c(O)c2ccccc2oc1=O` [III], the IC50 is reported as 60 nM. In the case of `CCCCCCc1c(O)c2ccccc2oc1=O` [VIII, reference compound], the IC50 is reported as > 200 nM. In the case of `CCCCCCCCc1c(O)c2ccccc2oc1=O` [II], the IC50 is reported as 150 nM.

Same assay, conditions: microsomal liver fractions from sensitive rats, vitamin K epoxide substrate, 30 minutes at 37° C., pH 7.4, 1 mM dithiothreitol; read-out: IC50
With `CCCCCCCCCCCCCCCCCCCCc1c(O)c2ccccc2oc1=O` [IX, reference compound] the IC50 was > 500 nM.
